Soluble and soluble data for one compound are collected here from patent US20240114949A1, “AEROSOLIZABLE MATERIAL” (Nicoventures Trading Limited, priority 2019, published 2024).

The nature of the data set: Solubility of cannabidiol isolate in glycerol/propylene glycol/water solutions. It counts as physicochemical. To be noted: Isolate 10 mg/mL.

For `C=C(C)[C@@H]1CCC(C)=C[C@H]1c1c(O)cc(CCCCC)cc1O` [Isolate, cannabidiol], the Soluble result (Glycerol 36, PG 52.09, Water 11 (w/w)) was “YES” and the Soluble result (Glycerol 36, PG 53.09, Water 10 (w/w)) was “YES”. Also, the soluble at 10 mg/mL (yes/no) (glycerol/propylene glycol/water solution, organic solvent or mixture, Glycerol 36, PG 47.09, Water 16 (w/w)) was less than 10000 µg/mL.
